In EP1027361B1, “6,11-BRIDGED ERYTHROMYCIN DERIVATIVES” (Abbott Laboratories, priority 1997, dated 1999):

Experiments:
Assay in all cases: in vitro antibacterial activity, agar dilution MIC
Format in all cases: cell-based
[1] = tested on: Staphylococcus aureus A5177; parameters: unit not given here; conditions: organism code BB, BHI agar, 35-37 °C, 20 to 24 hours
Experimental: (§1) Representative compounds of the present invention were assayed in vitro for antibacterial activity as follows: Twelve petri dishes containing successive aqueous dilutions of the test compound mixed with 10 mL of sterilized Brain Heart Infusion (BHI) agar (Difco 0418-01-5) were prepared. Each plate was inoculated with 1:100 (or 1:10 for slow-growing strains, such as Micrococcus and Streptococcus) dilutions of up to 32 different microorganisms, using a Steers replicator block. […] In addition, a control plate, using BHI agar containing no test compound, was prepared and incubated at the beginning and end of each test
(§2) An additional plate containing a compound having known susceptibility patterns for the organisms being tested and belonging to the same antibiotic class as the test compound was also prepared and incubated as a further control, as well as to provide test-to-test comparability.
(§3) After incubation, each plate was visually inspected. The minimum inhibitory concentration (MIC) was defined as the lowest concentration of drug yielding no growth, a slight haze, or sparsely isolated colonies on the inoculum spot as compared to the growth control.

[2] = tested on: Mycobacterium smegmatis ATCC 114; parameters: unit not given here; conditions: organism code UU, BHI agar, 35-37 °C, 20 to 24 hours
Experimental: as §1, §2, §3

[3] = tested on: Streptococcus Pheumoniae 5979; conditions: organism code ZZ, BHI agar, 35-37 °C, 20 to 24 hours
Experimental: as §1, §2, §3

[4] = tested on: Staphylococcus aureus 1775; conditions: organism code GG, BHI agar, 35-37 °C, 20 to 24 hours
Experimental: as §1, §2, §3

[5] = tested on: Streptococcus pyogenes PIU 2548; conditions: organism code NN, BHI agar, 35-37 °C, 20 to 24 hours
Experimental: as §1, §2, §3

[6] = tested on: Candida albicans CCH 442; conditions: organism code TT, BHI agar, 35-37 °C, 20 to 24 hours
Experimental: as §1, §2, §3

[7] = tested on: Streptococcus pyogenes 930; conditions: organism code MM, BHI agar, 35-37 °C, 20 to 24 hours
Experimental: as §1, §2, §3

[8] = tested on: Escherichia coli DC-2; conditions: organism code SS, BHI agar, 35-37 °C, 20 to 24 hours
Experimental: as §1, §2, §3

[9] = tested on: Staphylococcus aureus A-5278; conditions: organism code CC, BHI agar, 35-37 °C, 20 to 24 hours
Experimental: as §1, §2, §3

[10] = tested on: Staphylococcus aureus CMX 642A; conditions: organism code DD, BHI agar, 35-37 °C, 20 to 24 hours
Experimental: (§4) Erythromycin A was used for this purpose.
(§5) After incubation, each plate was visually inspected.

[11] = tested on: Staphylococcus epidermidis 3519; conditions: organism code HH, BHI agar, 35-37 °C, 20 to 24 hours
Experimental: as §4, §5

[12] = tested on: Escherichia coli SS; conditions: organism code RR, BHI agar, 35-37 °C, 20 to 24 hours
Experimental: as §4, §5

[13] = tested on: Streptococcus Pheumoniae 5649; conditions: organism code ZZA, BHI agar, 35-37 °C, 20 to 24 hours
Experimental: as §4, §5

[14] = tested on: Micrococcus luteus ATCC 4698; conditions: organism code PP, BHI agar, 35-37 °C, 20 to 24 hours
Experimental: as §4, §5

[15] = tested on: Enterococcus faecium ATCC 8043; conditions: organism code II, BHI agar, 35-37 °C, 20 to 24 hours
Experimental: as §4, §5

[16] = tested on: Haemophilis Influenzae DILL AMP R; conditions: organism code WW, BHI agar, 35-37 °C, 20 to 24 hours
Experimental: as §4, §5

[17] = tested on: Nocardia Asteroides ATCC9970; conditions: organism code VV, BHI agar, 35-37 °C, 20 to 24 hours
Experimental: as §4, §5

[18] = tested on: Escherichia coli JUHL; conditions: organism code QQ, BHI agar, 35-37 °C, 20 to 24 hours
Experimental: as §4, §5

[19] = tested on: Streptococcus Pheumoniae GYR 1171; conditions: organism code YY, BHI agar, 35-37 °C, 20 to 24 hours
Experimental: as §4, §5

[20] = tested on: Staphylococcus aureus CMX 553; conditions: organism code FF, BHI agar, 35-37 °C, 20 to 24 hours
Experimental: as §4, §5

[21] = tested on: Staphylococcus aureus NCTC10649M; conditions: organism code EE, BHI agar, 35-37 °C, 20 to 24 hours
Experimental: as §4, §5

[22] = tested on: Micrococcus luteus ATCC 9341; conditions: organism code OO, BHI agar, 35-37 °C, 20 to 24 hours
Experimental: as §4, §5

[23] = tested on: Staphylococcus aureus ATCC 6538P; parameters: unit not given here; conditions: organism code AA, BHI agar, 35-37 °C, 20 to 24 hours
Experimental: as §4, §5

[24] = tested on: Streptococcus Pheumoniae ATCC6303; parameters: unit not given here; conditions: organism code XX, BHI agar, 35-37 °C, 20 to 24 hours
Experimental: as §4, §5

[25] = tested on: Streptococcus bovis A-5169; parameters: unit not given here; conditions: organism code JJ, BHI agar, 35-37 °C, 20 to 24 hours
Experimental: as §4, §5

[26] = tested on: Streptococcus pyogenes EES61; parameters: unit not given here; conditions: organism code LL, BHI agar, 35-37 °C, 20 to 24 hours
Experimental: as §4, §5

[27] = tested on: Streptococcus agalactiae CMX 508; parameters: unit not given here; conditions: organism code KK, BHI agar, 35-37 °C, 20 to 24 hours
Experimental: as §4, §5

Compound | minimum inhibitory concentration (MIC) [1] | minimum inhibitory concentration (MIC) [2] | minimum inhibitory concentration (MIC) [3] | minimum inhibitory concentration (MIC) [4] | minimum inhibitory concentration (MIC) [5] | minimum inhibitory concentration (MIC) [6] | minimum inhibitory concentration (MIC) [7] | minimum inhibitory concentration (MIC) [8] | minimum inhibitory concentration (MIC) [9] | minimum inhibitory concentration (MIC) [10] | minimum inhibitory concentration (MIC) [11] | minimum inhibitory concentration (MIC) [12] | minimum inhibitory concentration (MIC) [13] | minimum inhibitory concentration (MIC) [14] | minimum inhibitory concentration (MIC) [15] | minimum inhibitory concentration (MIC) [16] | minimum inhibitory concentration (MIC) [17] | minimum inhibitory concentration (MIC) [18] | minimum inhibitory concentration (MIC) [19] | minimum inhibitory concentration (MIC) [20] | further results
CC[C@H]1OC(=O)[C@H](C)[C@@H](O[C@H]2C[C@@](C)(OC)[C@@H](OC(C)=O)[C@H](C)O2)[C@H](C)[C@@H](O[C@@H]2O[C@H](C)C[C@H](N(C)C)[C@H]2O)[C@@]2(C)C[C@@H](C)C(=O)[C@H](C)[C@H]3N(CCNCc4cccc(c4)C=CCO2)C(=O)O[C@]13C [Example 10, Compound of Formula (I), 2'-R^p is H, 4"-R^p is acetyl, m is 2, A is NH, B is-(CH2)q-, q is 1, D is 1,3-phenylene, E is-(CH2)r-CH=CH-, r is 0, n is 1] | 25 | 0.39 | 64 | 100 | 6.2 | >100 | 25 | >100 | 100 | 6.2 | 6.2 | 6.2 | 8 | 1.56 | 0.78 | 64 | 1.56 | >100 | 0.25 | 6.2 | minimum inhibitory concentration (MIC) [21]: 6.2; minimum inhibitory concentration (MIC) [22]: 0.39; minimum inhibitory concentration (MIC) [23]: 6.2; minimum inhibitory concentration (MIC) [24]: 0.12; minimum inhibitory concentration (MIC) [25]: 0.39; minimum inhibitory concentration (MIC) [26]: 0.78; minimum inhibitory concentration (MIC) [27]: 0.39
CC[C@H]1OC(=O)[C@H](C)C(=O)[C@H](C)[C@@H](O[C@@H]2O[C@H](C)C[C@H](N(C)C)[C@H]2O)[C@@]2(C)C[C@@H](C)C(=O)[C@H](C)[C@H]3N(CCOCc4ccccc4C=CCO2)C(=O)O[C@]13C [Example 12, Compound of Formula (II), R^p is H, m is 2, A is -O-, B is-(CH2)q-, q is 1, D is 1,2-phenylene, E is-(CH2)r-CH=CH-, r is 0, n is 1] | 0.78 | 0.78 | 128 | >100 | 0.39 | >100 | 50 | >100 | >100 | 0.78 | 0.78 | 1.56 | 1 | 0.39 | 0.1 | 16 | 0.78 | >100 | 0.125 | 0.78 | minimum inhibitory concentration (MIC) [21]: 0.78; minimum inhibitory concentration (MIC) [22]: 0.2; minimum inhibitory concentration (MIC) [23]: 0.78; minimum inhibitory concentration (MIC) [24]: 0.25; minimum inhibitory concentration (MIC) [25]: 0.05; minimum inhibitory concentration (MIC) [26]: 0.05; minimum inhibitory concentration (MIC) [27]: 0.1
CC[C@H]1OC(=O)[C@H](C)[C@@H](O[C@H]2C[C@@](C)(OC)[C@@H](O)[C@H](C)O2)[C@H](C)[C@@H](O[C@@H]2O[C@H](C)C[C@H](N(C)C)[C@H]2O)[C@@]2(C)C[C@@H](C)C(=O)[C@H](C)[C@H]3N(CCCCO2)C(=O)O[C@]13C [Example 15, Compound of Formula (I), R^p is H, m is 3, A is absent, B is absent, D is absent, E is absent, n is 1] | 3.1 | 1.56 | >128 | >100 | 6.2 | >100 | >100 | >100 | >100 | 0.39 | 0.39 | 3.1 | 16 | 0.39 | 0.1 | 32 | 0.1 | >100 | 0.03 | 0.39 | minimum inhibitory concentration (MIC) [21]: 0.78; minimum inhibitory concentration (MIC) [22]: 0.05; minimum inhibitory concentration (MIC) [23]: 0.39; minimum inhibitory concentration (MIC) [24]: 0.03; minimum inhibitory concentration (MIC) [25]: 0.05; minimum inhibitory concentration (MIC) [26]: 0.1; minimum inhibitory concentration (MIC) [27]: 0.05
CC[C@H]1OC(=O)[C@H](C)C(=O)[C@H](C)[C@@H](O[C@@H]2O[C@H](C)C[C@H](N(C)C)[C@H]2O)[C@@]2(C)C[C@@H](C)C(=O)[C@H](C)[C@H]3N(CC=CCO2)C(=O)O[C@]13C [Example 16, Compound of Formula (II), R^p is H, m is 1, A is absent, B is absent, D is absent, E is-(CH2)r-CH=CH-, r is 0, n is 1] | 0.39 | 6.2 | >128 | >100 | 0.39 | >100 | >100 | >100 | >100 | 0.39 | 0.39 | 0.78 | 0.5 | 0.39 | 0.2 | 32 | 0.39 | >100 | 0.25 | 0.39 | minimum inhibitory concentration (MIC) [21]: 0.39; minimum inhibitory concentration (MIC) [22]: 0.2; minimum inhibitory concentration (MIC) [23]: 0.39; minimum inhibitory concentration (MIC) [24]: 0.25; minimum inhibitory concentration (MIC) [25]: 0.2; minimum inhibitory concentration (MIC) [26]: 0.2; minimum inhibitory concentration (MIC) [27]: 0.2
